Assays:
[1] = system: antibody-forming cells (AFC) in the spleen; experiment: Influence of rat AFP/compound complex and compound alone on humoral immune response, C57B1/6 male mice; format: in vivo; settings: compound alone, 5th day
Experimental: (§1) The influence of complexes of AFP with one of the title compounds 1-4, 1a-4a, 5-20 as well as their basic components on humoral immune response was estimated by counting the quantity of antibody-forming cells (AFC) in the mice spleen.
0.15 ml of AFP/Compound 7 complex (1:200) was administered intravenously to 6 male mice of C57B1/6 line (weight 18-22 g) in the dose of 9 μg of AFP and 91 μg of compound 7 per capita. Simultaneously, a suspension of 5·10^7 sheep erythrocytes was injected intraperitoneally (0.2 ml per capita). In the group with compound 7 mice were injected intravenously by one in the dose of 91 μg. Animals of group with AFP received 9 μg of AFP. Mice of control group were injected intravenously with equal volume of saline. AFP/Compound 7 complex effect on humoral immune response was analyzed by counting the quantity of AFC in the spleen according to Cunningham (per 10^6 spleen cells and per spleen).
0.15 ml of AFP/Compound 15 complex (1:200) was administered intravenously to 6 mice males of C57B1/6 line (weight 18-22 g) in the dose of 9 μg of AFP and 91 μg of compound 15 per capita. Simultaneously, a suspension of 5·10^7 sheep erythrocytes was injected intraperitoneally (0.2 ml per capita). In the group receiving compound 15, the mice were injected intravenously by one in the dose of 91 μg. Animals in the AFP-group received 9 μg of AFP. Mice in the control group were injected intravenously with an equal volume of saline. The effect of the AFP/Compound 15 complex on humoral immune response was analyzed by counting the quantity of AFC in the spleen according to Cunningham (per 10^6 spleen cells and per spleen).
(§2) 0.15 ml of AFP/Compound 1 complex was administered intravenously to 6 mice males of C57B1/6 line (weight 18-22 g) in the dose of 9 μg of AFP and 45.5 μg of compound 1 per capita. Simultaneously, a suspension of 5·10^7 sheep erythrocytes was injected intraperitoneally (0.2 ml per capita). In the group with compound 1 mice were injected intravenously by one in the dose of 45.5 μg. Animals of group with AFP received 9 μg of AFP. Mice in the control group were injected intravenously with an equal volume of saline. Complex AFP/Compound 1 effect on humoral immune response was analyzed by counting the quantity of AFC in the spleen according to Cunningham (per 10^6 spleen cells and per spleen).

[2] = system: human AFP (alpha-fetoprotein); settings: International Application PCT/EP99/04201; cited from earlier work
AFP = target: T1, AFP (Homo sapiens, UniProt P02771); settings: International Application PCT/EP99/04201; cited from earlier work
T1 construct: from tissue; host or cells: human cord blood
T1 sequence (P02771 19-609): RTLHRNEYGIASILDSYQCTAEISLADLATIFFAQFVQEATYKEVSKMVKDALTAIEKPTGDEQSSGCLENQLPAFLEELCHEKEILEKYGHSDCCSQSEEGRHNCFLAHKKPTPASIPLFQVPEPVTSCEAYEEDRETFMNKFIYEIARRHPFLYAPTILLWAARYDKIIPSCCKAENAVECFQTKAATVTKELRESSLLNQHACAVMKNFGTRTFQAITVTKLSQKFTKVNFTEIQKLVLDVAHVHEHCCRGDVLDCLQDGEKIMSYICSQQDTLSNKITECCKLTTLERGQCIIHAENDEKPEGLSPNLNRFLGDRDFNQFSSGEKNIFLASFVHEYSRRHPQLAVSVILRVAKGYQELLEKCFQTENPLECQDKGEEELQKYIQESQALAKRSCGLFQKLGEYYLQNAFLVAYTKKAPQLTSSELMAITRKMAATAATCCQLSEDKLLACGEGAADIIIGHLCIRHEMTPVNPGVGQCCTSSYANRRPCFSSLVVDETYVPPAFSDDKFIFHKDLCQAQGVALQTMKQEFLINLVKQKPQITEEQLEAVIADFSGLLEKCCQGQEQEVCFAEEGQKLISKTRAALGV

[3] = system: antibody-forming cells (AFC) in the spleen; experiment: Influence of compound on humoral immune response to sheep erythrocytes, C57B1/6 female mice (AFC in spleen, hemagglutinins); format: in vivo; settings: for Amount of antibody-forming cells per 10^6 spleen cells / Amount of antibody-forming cells per spleen / Effect on relative amount of AFC (per 10^6 spleen cells) / Effect on total AFC amount (per spleen) / Effect on hemagglutinin titers / Spleen index: i.v.; for Amount of antibody-forming cells per 10^6 spleen cells / Amount of antibody-forming cells per spleen / Effect on relative amount of AFC (per 10^6 spleen cells) / Effect on total AFC amount (per spleen): 5th day; for Amount of antibody-forming cells per 10^6 spleen cells / Amount of antibody-forming cells per spleen: M ± SEM; for Effect on relative amount of AFC (per 10^6 spleen cells) / Effect on total AFC amount (per spleen) / Effect on hemagglutinin titers: vs control; for Spleen index: with SRBC i.p.
[4] = system: antibody-forming cells (AFC) in the spleen; experiment: Influence of human AFP/compound complex and compound alone on humoral immune response, C57B1/6 male mice; format: in vivo; settings: compound alone, 91 μg/mouse i.v., 5th day
Experimental: as §1
0.15 ml of AFP/Compound 3 complex was administered intravenously to 6 mice males of C57B1/6 line (weight 18-22 g) in the dose of […] of AFP and 45.5 μg of compound 3 per capita. Simultaneously suspension of 5·10^7 sheep erythrocytes was injected intraperitoneally (0.2 ml per capita). In the group with compound 3 mice were injected intravenously by one in the dose of 45.5 μg. Animals of group with AFP received 9 μg of AFP. Mice of control group were injected intravenously with equal volume of saline. Complex AFP/Compound 3 effect on humoral immune response was analyzed by counting the quantity of AFC in the spleen according to Cunningham (per 10^6 spleen cells and per spleen).
as §2, with “AFP/Compound 2a” for “AFP/Compound 1”, “complex (1:100)” for “complex”, “compound 2a” for “compound 1”, “saline. The effect of the” for “saline. Complex”, “AFP/Compound 2a complex” for “AFP/Compound 1 effect”
0.15 ml of AFP/Compound 10 complex (1:200) was administered intravenously to 6 male mice of C57B1/6 line (weight 18-22 g) in the dose of 9 μg of AFP and 91 μg of compound 10 per capita. Simultaneously, a suspension of 5·10^7 sheep erythrocytes was injected intraperitoneally (0.2 ml per capita). In the group receiving compound 10 mice were injected intravenously by one in the dose of 91 μg. Animals in the group with AFP received 9 μg of AFP. Micein the control group were injected intravenously with an equal volume of saline. The effect of the AFP/Compound 10 complex on humoral immune response was analyzed by counting the quantity of AFC in the spleen according to Cunningham (per 10^6 spleen cells and per spleen).
0.15 ml of AFP/Compound 14 complex (1:200) was administered intravenously to 6 male mice of C57B1/6 line (weight 18-22 g) in the dose of 9 μg of AFP and 91 μg of compound 14 per capita. Simultaneously, a suspension of 5·10^7 sheep erythrocytes was injected intraperitoneally (0.2 ml per capita). In the group with compound 14 mice were injected intravenously by one in the dose of 91 μg. Animals of group with AFP received 9 μg of AFP. Mice in the control group were injected intravenously with an equal volume of saline. The effect of the AFP/Compound 14 complex on humoral immune response was analyzed by counting the quantity of AFC in the spleen according to Cunningham (per 10^6 spleen cells and per spleen).

endothelial cells = settings: cited from earlier work
human AFP = target: T2, human AFP (Homo sapiens, UniProt P02771); experiment: AFP binding: competitive substitution of [3H]arachidonic acid from the protein's binding site
T2 construct: from tissue; host or cells: human cord blood
Experimental: To tubes containing […] AFP in 1 ml 0.1 M bicarbonate buffer and 0.7 pmol [^3H]arachidonic acid and increasing amounts (5-5000 pmol) of arachidonic acid or any one of the title compounds 1-4, 1a-4a, and 5-20 were added. The tubes were incubated for 2 hr at room temperature. To separate protein-bound and free fractions of [^3H] arachidonic acid, tubes were incubated at 4° C. for 15 min with dextran covered activated carbon (0.5% suspension). The carbon was sedimented by centrifugation at 3000×g, aliquotes were added to 10 ml scintillating mixture and the vials were measured in a beta-counter.
The binding parameters of arachidonic acid and the compounds (1-4, 1a-4a, 5-16) the number of binding sites per protein molecule were calculated according to Scatchard (Scatchard O., Ann.N.Y.Acad.Sci. 51., p 660-664, 1949), and Blondeau (Blondeau J.-P., et al., Steroids, V. 32, N 5, P. 563-575, 1978).

rats = settings: injected into rats; cited from earlier work

CC1=C(/C=C/C(C)=C/C=C/C(C)=C/C(=O)NCCOP(=O)(O)O)C(C)(C)CCC1 [Compound 1, N-(all-trans-Retinoyl)-O-phospho-2-aminoethanol]
relative amount of AFC ([1]; 45.5 μg/mouse i.v.): 413.1±31.5 cells per 10^6 spleen cells
total AFC amount ([1]; 45.5 μg/mouse i.v.): 38.4±3.7 × 10^3

CCCCC/C=C\C/C=C\C/C=C\C/C=C\CCCC(=O)NCCOP(=O)(O)O [Compound 5, N-(cis-5,8,11,14-eicosatetraenoyl)-O-phospho-2-aminoethanol]
molecules of N-AAP in micelle linked to AFP [2]: up to 300 molecules

CCCCC/C=C\C/C=C\C/C=C\C/C=C\CCCC(=O)NCCOP(=O)(O)O [Compound 5, N-arachidonoyl-o-phospho-2-aminoethanol]
Molecules of compound in the micelle reversibly linked to AFP (AFP): up to 300 molecules

CCCCC/C=C\C/C=C\C/C=C\C/C=C\CCCC(=O)N[C@H](C(=O)O)[C@@H](C)OP(=O)(O)O [Compound 7, N-(cis-5,8,11,14-eicosatetraenoyl)-O-phospho-L-threonine]
relative amount of AFC ([1]; 91 μg/mouse i.v.): 574.9±39.6 cells per 10^6 spleen cells
total AFC amount ([1]; 91 μg/mouse i.v.): 60.4±5.4 × 10^3

CC/C=C\C/C=C\C/C=C\C/C=C\C/C=C\CCCC(=O)N[C@@H](COP(=O)(O)O)C(=O)O [Compound 14, N-(cis-5,8,11,14,17-eicosapentaenoyl)-O-phospho-L-serine]
Amount of antibody-forming cells per 10^6 spleen cells ([3]; 45.5 μg/mouse): 554.6±52.0 cells per 10^6 spleen cells
Amount of antibody-forming cells per spleen ([3]; 45.5 μg/mouse): 70.8±10.8 × 10^3
Effect on relative amount of AFC (per 10^6 spleen cells) ([3]; 45.5 μg/mouse): −10.9 p > 0.05%
Effect on total AFC amount (per spleen) ([3]; 45.5 μg/mouse): −1.5 p > 0.05%
Effect on hemagglutinin titers ([3]; 45.5 μg/mouse): −9,7 p > 0.05%
Spleen index ([3]; 45.5 μg/mouse): 6.5 ± 0.2 10^−3
Amount of antibody-forming cells per 10^6 spleen cells ([3]; 91 μg/mouse): 645.8±64.4 cells per 10^6 spleen cells
Amount of antibody-forming cells per spleen ([3]; 91 μg/mouse): 80.8±12.7 × 10^3
Effect on relative amount of AFC (per 10^6 spleen cells) ([3]; 91 μg/mouse): +3.8 p > 0.05%
Effect on total AFC amount (per spleen) ([3]; 91 μg/mouse): +12.4 p > 0.05%
Effect on hemagglutinin titers ([3]; 91 μg/mouse): −2,8 p > 0.05%
Spleen index ([3]; 91 μg/mouse): 6.2 ± 0.2 10^−3
immunostimulating action ([3]; 136.5 μg/mouse): marked immunostimulating action
Amount of antibody-forming cells per 10^6 spleen cells ([3]; 136.5 μg/mouse): 946.1±41.9 cells per 10^6 spleen cells
Amount of antibody-forming cells per spleen ([3]; 136.5 μg/mouse): 108.6±10.8 × 10^3
Effect on hemagglutinin titers ([3]; 136.5 μg/mouse): 0%
Spleen index ([3]; 136.5 μg/mouse): 6.5 ± 0.3 10^−3
Immunogenic activity ([3]; 45.5 and 91 μg/mouse): no immunogenic activity
relative amount of AFC [4]: 645.8±64.4 cells per 10^6 spleen cells
total AFC amount [4]: 80.8±12.7 × 10^3

CC/C=C\C/C=C\C/C=C\C/C=C\C/C=C\CCCC(=O)N[C@H](C(=O)O)[C@@H](C)OP(=O)(O)O [Compound 15, N-(cis-5,8,11,14,17-eicosapentaenoyl)-O-phospho-L-threonine]
relative amount of AFC ([1]; 91 μg/mouse i.v.): 594.7±41.4 cells per 10^6 spleen cells
total AFC amount ([1]; 91 μg/mouse i.v.): 70.8±8.2 × 10^3

CCCCCCCC/C=C\CCCCCCCCCCCC(N)=O [Erucamide, 13-docosenamide]
inflammatory effects (endothelial cells): does not promote proliferation of endothelial cells or induce inflammatory effects
proliferation of endothelial cells (endothelial cells): does not promote proliferation of endothelial cells

CCCCC/C=C\C/C=C\C/C=C\C/C=C\CCCC(=O)O [arachidonic acid]
Kd (human AFP): 0.0167 µM
n (number of binding sites per protein molecule) (human AFP; three independent determinations, Scatchard): > 1.2

CCCCCCCC/C=C\CCCCCCCC(N)=O [cis-9,10-octadecenoamide]
physiological sleep (rats): induced physiological sleep

Reference: patent US6403554B2, “Polyunsaturated fatty acid derivatives and their use” (Ardenia Investments Ltd., priority 1998, dated 2002)
